In patent US20140088124A1, “IMIDAZOLE DERIVATIVES” (priority 2011, published 2014):

What was measured:
[1] = target: T1, human DGAT1 enzyme expressed in Sf9 insect cells prepared as microsomes (Homo sapiens, UniProt O75907); test: in vitro assay to identify DGAT1 inhibitors ([14C]-palmitoyl-CoA, wheat germ agglutinin beads, TopCount); type: biochemical; details: 2 hours at room temperature
T1 construct: made in house; host or cells: Sf9 insect cells (microsomes)
T1 sequence (O75907 1-488): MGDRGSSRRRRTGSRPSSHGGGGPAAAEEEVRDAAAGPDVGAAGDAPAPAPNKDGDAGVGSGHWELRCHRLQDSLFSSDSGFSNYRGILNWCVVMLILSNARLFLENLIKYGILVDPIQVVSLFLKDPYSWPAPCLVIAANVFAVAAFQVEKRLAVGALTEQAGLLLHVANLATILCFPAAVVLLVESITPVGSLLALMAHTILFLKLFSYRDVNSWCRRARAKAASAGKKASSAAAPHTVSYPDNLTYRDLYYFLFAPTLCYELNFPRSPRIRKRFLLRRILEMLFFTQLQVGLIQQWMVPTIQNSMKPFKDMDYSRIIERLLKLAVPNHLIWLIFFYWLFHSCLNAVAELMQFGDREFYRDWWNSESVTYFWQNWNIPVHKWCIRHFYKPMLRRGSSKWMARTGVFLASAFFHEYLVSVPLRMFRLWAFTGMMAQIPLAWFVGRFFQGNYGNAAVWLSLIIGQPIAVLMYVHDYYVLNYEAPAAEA
Description: If compounds 141-162 were assayed they were assayed as follows: the in vitro assay to identify DGAT1 inhibitors uses human DGAT1 enzyme expressed in Sf9 insect cells prepared as microsomes. The reaction is initiated by the addition of the combined substrates 1,2-dioleoyl-sn-glycerol and [^14C]-palmitoyl-Co A and incubated with test compounds and microsomal membranes for 2 hours at room temperature. The assay is stopped by adding 0.5 mg wheat germ agglutinin beads in assay buffer with 1% Brij-35 and 1% 3-cholamidopropyldimethyl-ammonio-1-propane sulfonate. Plates are sealed with TopSeal and incubated for 18 hours to allow the radioactive triglyceride product to come into proximity with the bead. Plates are read on a TopCount instrument.
Percent inhibition was calculated as the percent of (test compound inhibition minus non-specific binding) relative to (total binding minus non-specific binding). IC50 values were determined by curve fitting the data to a Sigmoidal dose-response in GraphPad Prism utilizing the following equation:
Y=A+(B−A)/(1+10̂((Log IC50−X))),
where A and B are the bottom and top of the curve (highest and lowest inhibition), respectively, and X is the logarithm of concentration.

human DGAT1 = target: T2, human DGAT1 (Homo sapiens, UniProt O75907); test: DGAT1 CPM Assay; type: biochemical; details: human DGAT1, CPM fluorescence, 1 hour incubation at room temperature
T2 sequence (O75907 1-488): T1 sequence (O75907 1-488)
Description: 20 uL of 90 uM CPM reagent in 90% ethanol was added after 1 hour incubation at room temperature.

| SMILES | IC50 [1] [nM] | IC50 (human DGAT1) [nM] |
| --- | --- | --- |
| O=C(O)C1(COCC2CCN(c3ccc(-c4nc5cc(Cl)ccc5[nH]4)cn3)CC2)CCC1 [Example 161] | 95 |  |
| COC(=O)c1cccc(OCC2CCN(c3ccc(-c4nc5cc(Cl)ccc5[nH]4)cn3)CC2)c1 [Example 143] | 1830 |  |
| Cc1ccc(C(=O)O)cc1OCC1CCN(c2ccc(-c3nc4cc(Cl)ccc4[nH]3)cn2)CC1 [Example 156] | 12 |  |
| CC(C)(COCC1CCN(c2ccc(-c3nc4cc(Cl)ccc4[nH]3)cn2)CC1)C(=O)O [Example 159] | 108 |  |
| O=C(O)c1ccc(F)cc1OCC1CCN(c2ccc(-c3nc4cc(C(F)(F)F)ccc4[nH]3)cn2)CC1 [Example 155] | 31 |  |
| O=C(O)c1ccccc1OCC1CCN(c2ccc(-c3nc4cc(C(F)(F)F)ccc4[nH]3)cn2)CC1 [Example 152] | 14 |  |
| O=C(O)c1cc(OCC2CCN(c3ccc(-c4nc5cc(Cl)ccc5[nH]4)cn3)CC2)cc(C(=O)O)c1 [Example 146, 5-((1-(5-(5-chloro-1H-benzo[d]imidazol-2-yl)pyridin-2-yl)piperidin-4-yl)methoxy)isophthalic acid] | 18 |  |
| CC(C)(COCC1CCN(c2ccc(-c3nc4cc(C(F)(F)F)ccc4[nH]3)cn2)CC1)C(=O)O [Example 160] | 84 |  |
| COC(=O)c1cccc(OCC2CCN(c3ccc(-c4nc5cc(C(F)(F)F)ccc5[nH]4)cn3)CC2)c1 [Example 141, methyl 3-[[1-[5-[5-(trifluoromethyl)-1H-benzol[d]imidazol-2-yl]pyridine-2-yl]piperidin-4-yl]methoxy]benzoate] | 2500 |  |
| COC(=O)c1ccccc1OCC1CCN(c2ccc(-c3nc4cc(C(F)(F)F)ccc4[nH]3)cn2)CC1 [Example 151] | 2700 |  |
| O=C(O)c1cc(F)ccc1OCC1CCN(c2ccc(-c3nc4cc(Cl)ccc4[nH]3)cn2)CC1 [Example 148, 2-[[1-[5-(6-chloro-1H-benzimidazol-2-yl)-2-pyridinyl]-4-piperidinyl]methoxy]-5-fluorobenzoic acid] | 1070 |  |
| O=C(O)C1(COCC2CCN(c3ccc(-c4nc5cc(C(F)(F)F)ccc5[nH]4)cn3)CC2)CCC1 [Example 162] | 62 |  |
| O=C(O)c1cccc(OCC2CCN(c3ccc(-c4nc5cc(C(F)(F)F)ccc5[nH]4)cn3)CC2)c1 [Example 142, 3-[[1-[5-[5-(trifluoromethyl)-1H-benzol[d]imidazol-2-yl]pyridine-2-yl]piperidin-4-yl]methoxy]benzoic acid] | 13 |  |
| O=C(O)c1cccc(OCC2CCN(c3ccc(-c4nc5cc(Cl)ccc5[nH]4)cn3)CC2)c1 [Example 144] | 8 |  |
| O=C(O)c1ccccc1OCC1CCN(c2ccc(-c3nc4cc(Cl)ccc4[nH]3)cn2)CC1 [Example 153] | 85 |  |
| O=C(O)c1ccc(OCC2CCN(c3ccc(-c4nc5cc(Cl)ccc5[nH]4)cn3)CC2)cc1 [Example 150, 4-[[1-[5-(6-Chloro-1H-benzimidazol-2-yl)-2-pyridinyl]-4-piperidinyl]methoxy]benzoic acid] | 67 |  |
| Cc1ccc(C(=O)O)cc1OCC1CCN(c2ccc(-c3nc4cc(C(F)(F)F)ccc4[nH]3)cn2)CC1 [Example 157] | 15 |  |
| O=C(O)[C@H]1CC[C@H](OC2CCN(c3ccc(-c4nc5ccc(C(F)(F)F)nc5[nH]4)cn3)CC2)CC1 [Example 70, trans-4-[(1-{5-[5-(trifluoromethyl)-3H-imidazo[4,5-b]pyridin-2-yl]pyridin-2-yl}piperidin-4-yl)oxy]cyclohexanecarboxylic acid] |  | 11 |
| O=C(NS(=O)(=O)c1cccnc1)[C@H]1CC[C@H](OC2CCN(c3ccc(-c4nc5cc(F)ccc5[nH]4)cn3)CC2)CC1 [Example 82] |  | 19 |

| SMILES | IC50 [1] [nM] | IC50 (human DGAT1) [nM] |
| --- | --- | --- |
| O=C(O)C1(COC2CCN(c3ccc(-c4nc5ccc(Cl)cc5[nH]4)cn3)CC2)CCOCC1 [Example 50] |  | 17 |
| O=C(O)C1(COC2CCN(c3ccc(-c4nc5ccccc5[nH]4)cn3)CC2)CC1 [Example 41] |  | 1200 |
| Cc1ccc2[nH]c(-c3ccc(N4CCC(O[C@H]5CC[C@H](CC(=O)O)CC5)CC4)nc3)nc2n1 [Example 21] |  | 440 |
| O=C(O)[C@H]1CC[C@@H](OC2CCN(c3ccc(-c4nc5cc(Cl)ccc5[nH]4)cn3)CC2)CC1 [Example 76] |  | 2 |
| CC(C)(COC1CCN(c2ccc(-c3nc4cc(C#N)ccc4[nH]3)cn2)CC1)C(=O)O [Example 62] |  | 90 |
| COc1ccc2[nH]c(-c3ccc(N4CCC(OCC(C)(C)C(=O)O)CC4)nc3)nc2n1 [Example 48] |  | 60 |
| CC(C)(COC1CCN(c2ccc(-c3nc4cc(C(F)(F)F)ccc4[nH]3)cn2)CC1)C(=O)O [Example 34] |  | 4 |
| O=C(O)C1(C(=O)O)CC(OC2CCN(c3ccc(-c4nc5cc(C(F)(F)F)ccc5[nH]4)cn3)CC2)C1 [Example 95] |  | 85 |
| O=C(O)c1cccc(COC2CCN(c3ccc(-c4nc5cc(C(F)(F)F)ccc5[nH]4)cn3)CC2)c1 [Example 117] |  | 4 |
| O=C(O)[C@H]1C[C@@H](OC2CCN(c3ccc(-c4nc5ccc(C(F)(F)F)cc5[nH]4)cn3)CC2)C1 [Example 32, cis-3-[(1-{5-[6-(trifluoromethyl)-1H-benzimidazol-2-yl]pyridin-2-yl}piperidin-4-yl)oxy]cyclobutanecarboxylic acid] |  | 9 |
| O=C(O)[C@H]1[C@@H]2C[C@@H](OC3CCN(c4ccc(-c5nc6cc(C(F)(F)F)ccc6[nH]5)cn4)CC3)C[C@@H]21 [Example 134] |  | 4 |
| O=C1CN([C@H]2CC[C@@H](OC3CCN(c4ccc(-c5nc6cc(F)c(F)cc6[nH]5)cn4)CC3)CC2)S(=O)(=O)N1 [Example 122] |  | 10 |
| O=C(O)C[C@H]1CC[C@H](OC2CCN(c3ccc(-c4nc5nc(C(F)(F)F)ccc5[nH]4)cn3)CC2)CC1 [Example 23] |  | 16 |
| O=C(O)c1ccc(F)cc1OCC1CCN(c2ccc(-c3nc4cc(Cl)ccc4[nH]3)cn2)CC1 [Example 154] | 58 |  |
| C[C@]1(C(=O)O)CC[C@H](OC2CCN(c3ccc(-c4nc5ccc(Cl)cc5[nH]4)cn3)CC2)CC1 [Example 102] |  | 4 |
| O=C1CN([C@H]2CC[C@H](OC3CCN(c4ccc(-c5nc6cc(C(F)(F)F)ccc6[nH]5)cn4)CC3)CC2)S(=O)(=O)N1 [Example 118] |  | 5 |
| CC(C)(COC1CCN(c2ccc(-c3nc4ccccc4[nH]3)cn2)CC1)C(=O)O [Example 36] |  | 67 |
| C[C@]1(C(=O)O)CC[C@H](OC2CCN(c3ccc(-c4nc5ccc(C(F)(F)F)cc5[nH]4)cn3)CC2)CC1 [Example 100] |  | 2 |
| C[C@]1(C(=O)O)CC[C@@H](OC2CCN(c3ccc(-c4nc5ncc(C(F)(F)F)cc5[nH]4)cn3)CC2)CC1 [Example 107] |  | 48 |
